The results in this text go back to patent publication US11208404B2 (PERENNA PHARMACEUTICALS, INC., priority 2017, dated 2021).

For orientation: inhibition means the change of the read-out against control, counted positive when it falls. In general, IC50 refers to the concentration needed to halve the response being measured.

Values joined by “and” are separate entries in the source; they are usually repeats but may differ in a detail not shown here. Equal values may be shown once.

This assay deals with ALCAT1 (Homo sapiens (Human), UniProt Q6UWP7). Nature of the assay: In vitro acyltransferase assay for ALCAT1 inhibitors. In kind it is biochemical. As to conditions: for % inh @ 1 μM / inhibition at 1 µM: 1 μM compound; for % inh @ 1 μM / inhibition at 1 µM / % inh @ 10 μM / inhibition at 10 µM: in vitro enzymatic assay; for % inh @ 10 μM / inhibition at 10 µM: 10 μM compound; for IC50: ALCAT1 enzyme activity, triplicates, GraphPad, read-out: IC50. The source says:
The human ALCAT1 protein were expressed in Spodoptera frugiperda (Sf9) insect cells by using a Bac-to-Bac baculovirus expression system (Invitrogen) according to the manufacturer's instruction. High-titer recombinant baculovirus expressing the human ALCAT1 protein was generated by several rounds of viral amplification. The Sf9 cells were typically infected with recombinant baculovirus for 3 days, harvested in ice-cold phosphate-buffered saline (PBS), and homogenized in 20 mm NaCl by going through French press. The total cell lysates were centrifuged at 10,000×g for 1 hours at 4° C. to eliminate the nucleus fraction, followed by ultracentrifugation at 100,000×g to pallet the membrane fraction. The membrane fraction was resuspended in enzymatic buffer that contain 10% glycerol, quantified for protein concentration, aliquoted, and stored at −80° C.
ALCAT1 enzymatic activity was determined by measuring the conversion of monolysocardiolipin (MLCL) to cardiolipin or lysophosphatidylglycerol (LPG) to phosphatidylglycerol (PG) in an enzymatic reaction mixture that contained 50 mm Tris/HCl, pH 7.0, 100 μm lysophospholipids, 25 μm [^14C]acyl-CoA (50 mCi/mmol, American Radiolabeled Chemicals, Inc), and membrane fraction (0.5-2.5 μg) in a total volume of 200 μl. The reaction was incubated at room temperature for 30 min. The lipids were extracted will chloroform, dried, and separated by thin layer chromatography (TLC) with chloroform:hexane:methanol:acetic acid (50:30:10:5, v/v) or chloroform:methanol:water (65:25:4, v/v). After separation, TLC plates were exposed to a Phosphorlmager screen to visualize the radiolabeled products with a Molecular Dynamics Typhoon Scanner (Sunnyvale, Calif.). In some experiments, NBD-CoA was used at 100 μM to replace the [^14C]acyl-CoA in the enzymatic reaction. All quantitative data were expressed as mean±S.E. Statistical analyses for differences between two groups were carried out using a Student's t test.
Compound inhibitors for ALCAT1 enzyme were analyzed by an in vitro enzymatic assay as detailed above. Compound inhibitors were added to the enzymatic mixture at 1-20 μM concentrations before the start of the acyltransferase reaction.
Where multiple measurements were taken this is indicated by a “/” between multiple values.
IC50 values for each compound were analyzed in triplicates, and calculated by GraphPad software.

Sequence of ALCAT1 (Q6UWP7 whole entry): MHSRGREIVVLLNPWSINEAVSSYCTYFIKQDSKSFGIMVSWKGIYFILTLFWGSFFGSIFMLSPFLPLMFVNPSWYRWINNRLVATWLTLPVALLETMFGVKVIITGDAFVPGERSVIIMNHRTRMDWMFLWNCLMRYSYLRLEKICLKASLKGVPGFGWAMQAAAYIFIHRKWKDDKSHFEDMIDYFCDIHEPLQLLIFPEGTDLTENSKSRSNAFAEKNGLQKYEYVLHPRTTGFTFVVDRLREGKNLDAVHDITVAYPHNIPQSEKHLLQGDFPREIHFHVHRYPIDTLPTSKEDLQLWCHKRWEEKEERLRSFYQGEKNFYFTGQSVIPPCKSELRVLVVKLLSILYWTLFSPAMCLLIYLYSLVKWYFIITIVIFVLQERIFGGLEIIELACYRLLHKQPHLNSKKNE

As for `O=C(Nc1cccc(-c2nnc(-c3ccco3)o2)c1)c1ccccc1F` [Compound 1], the “% inh @ 1 μM” value is listed as 63%; the inhibition at 1 µM stood at 59%; the “% inh @ 10 μM” value was 48% and 49% and 79%; the IC50 was determined as 210 nM.
Regarding `O=C(Nc1cccc(-c2nnc(-c3ccco3)o2)c1)c1ccccc1Br` [Compound 5], 10 µM produced 39% inhibition and the IC50 was found to be 4100 nM.
`O=C(Nc1cccc(-c2nnc(-c3ccco3)o2)c1)c1ccccc1C(F)(F)F` [Compound 7] yielded an inhibition at 10 µM of 3%.
The compound `O=C(Nc1cccc(-c2nnc(-c3ccco3)o2)c1)c1ccccc1C(F)F` [Compound 9] had an inhibition at 1 µM of 47% and an inhibition at 10 µM of 87%.
Consider `O=C(Nc1cccc(-c2nnc(-c3ccco3)o2)c1)c1ccc(C(F)F)cc1` [Compound 10], for which the inhibition at 10 µM was 2%.
`O=C(O)c1ccccc1C(=O)Nc1cccc(-c2nnc(-c3ccco3)o2)c1` [Compound 11] yielded an inhibition at 10 µM of 9%.
Turning to `O=C(Nc1cccc(-c2nnc(-c3cccs3)o2)c1)c1ccccc1F` [Compound 15, 2-fluoro-N-(3-(5-(thiophen-2-yl)-1,3,4-oxadiazol-2-yl)phenyl)benzamide], the inhibition at 1 µM is 20%.
For the compound `O=C(Nc1cccc(-c2nnc(-c3ccc[nH]3)o2)c1)c1ccccc1F` [Compound 16], the “% inh @ 1 μM” value is 58% and 85%.
Compound `O=C(Nc1cccc(-c2nnc(-c3ccc(Br)o3)o2)c1)c1ccccc1F` [Compound 18] had an inhibition at 10 µM of 2%.
The same measure, in the same setting: to `Cc1ccc(-c2nnc(-c3cccc(NC(=O)c4ccccc4F)c3)o2)o1` [Compound 19] belongs 2%.
`O=C(Nc1cccc(-c2nnc(-c3ccoc3)o2)c1)c1ccccc1F` [Compound 20, 2-fluoro-N-(3-(5-(furan-3-yl)-1,3,4-oxadiazol-2-yl)phenyl)benzamide] showed an inhibition at 1 µM of 13%.
Consider `O=C(Nc1cccc(-c2nnc(-c3ccsc3)o2)c1)c1ccccc1F` [Compound 21], for which the inhibition at 10 µM is 85%.
In the case of `O=C(Nc1cccc(-c2nnc(C3CCCO3)o2)c1)c1ccccc1F` (centres unmarked) [Compound 22, 2-fluoro-N-(3-(5-(tetrahydrofuran-2-yl)-1,3,4-oxadiazol-2-yl)phenyl)benzamide], 1 µM produced 20% inhibition and the inhibition at 10 µM stood at 8%.
As to `O=C(Nc1cc(-c2nnc(-c3ccco3)o2)ccc1Cl)c1ccccc1F` [Compound 23], testing at 10 µM gave an inhibition of 89% and the IC50 was 1800 nM.
Turning to `O=C(Nc1ccc(Cl)c(-c2nnc(-c3ccco3)o2)c1)c1ccccc1F` [Compound 24], at 10 µM the inhibition was 2%.
On the same count and under the same terms, to `O=C(Nc1cc(-c2nnc(-c3ccco3)o2)ccc1Br)c1ccccc1F` [Compound 25] belongs 56%.
Take `O=C(Nc1cc(-c2nnc(-c3ccco3)o2)ccc1F)c1ccccc1F` [Compound 27]: at 10 µM the inhibition was 98% and the IC50 was determined as 47 nM.
As to `O=C(Nc1ccc(F)c(-c2nnc(-c3ccco3)o2)c1)c1ccccc1F` [Compound 28], testing at 10 µM gave an inhibition of 51%.
In turn, `O=C(Nc1ccc(-c2nnc(-c3ccco3)o2)cc1)c1ccccc1F` [Compound 35, 2-fluoro-N-(4-(5-(furan-2-yl)-1,3,4-oxadiazol-2-yl)phenyl)benzamide] gave an inhibition at 1 µM of 16% and an inhibition at 10 µM of 5%.
For the compound `N#Cc1ccc(C(=O)Nc2cccc(-c3nnc(-c4ccco4)o3)c2)cc1` [Compound 36], the inhibition at 10 µM is 1%.
As for `O=C(Nc1cccc(-c2nnc(-c3ccco3)o2)c1)c1cccnc1F` [Compound 37], the “% inh @ 10 μM” value was 87%, testing at 10 µM gave an inhibition of 76% and the IC50 amounted to 3900 nM.
In the case of `O=C(Nc1cc(-c2nnc(-c3ccco3)o2)ccn1)c1ccccc1F` [Compound 39, 2-Fluoro-N-(4-(5-(furan-2-yl)-1,3,4-oxadiazol-2-yl)pyridin-2-yl)benzamide], testing at 1 µM gave an inhibition of 92% and the IC50 is 93 nM.
Turning to `O=C(Nc1cccc(-c2cnc(-c3ccco3)o2)c1)c1ccccc1F` [Compound 40], the IC50 was found to be 1700 nM.
`O=C(Nc1cccc(-c2nnc(-c3ccno3)o2)c1)c1ccccc1F` [Compound 42]: the inhibition at 1 µM stood at 23% and at 10 µM the inhibition was 70%.
With `O=C(Nc1ccccc1F)c1cccc(-c2nnc(-c3ccco3)o2)c1` [Compound 44, N-(2-fluorophenyl)-3-(5-(furan-2-yl)-1,3,4-oxadiazol-2-yl)benzamide], the inhibition at 1 µM worked out at 26% and the IC50 is 990 nM.
Regarding `O=C(Nc1cccc(-c2nnc(-c3ccco3)o2)c1)c1ccccc1` [Compound 46], the “% inh @ 10 μM” value was 43% and 68% and 75%; the IC50 came to 3800 nM.
For `O=C(Nc1cccc(-c2nnc(-c3ccco3)o2)c1)c1ccc(-c2ccccc2)cc1` [Compound 48], the “% inh @ 10 μM” value came out at 2%.
For the compound `O=C(Nc1cncc(-c2nnc(-c3ccco3)o2)c1)c1ccccc1F` [Compound 51], the “% inh @ 1 μM” value is on record as 57% and testing at 1 µM gave an inhibition of 43%.
Take `O=C(Nc1ccnc(-c2nnc(-c3ccco3)o2)c1)c1ccccc1F` [Compound 52]: the inhibition at 1 µM is 59% and the IC50 amounted to 750 nM.
As for `O=C(Nc1cccc(-c2nnc(-c3ccco3)o2)n1)c1ccccc1F` [Compound 53], the inhibition at 1 µM stood at 47% and the inhibition at 10 µM stood at 90%.
On to `COc1ccccc1C(=O)Nc1cccc(-c2nnc(-c3ccco3)o2)c1` [Compound 55], for which testing at 1 µM gave an inhibition of 81%, testing at 10 µM gave an inhibition of 100% and the half-inhibitory concentration (IC50) was found to be 130 nM.
In turn, `N#Cc1ccccc1C(=O)Nc1cccc(-c2nnc(-c3ccco3)o2)c1` [Compound 56] showed an inhibition at 10 µM of 2%.
Consider `Cc1cccc(C(=O)Nc2cccc(-c3nnc(-c4ccco4)o3)c2)c1` [Compound 57], for which the “% inh @ 10 μM” value was 89% and 94%; the inhibition at 10 µM came to 75%; the IC50 stood at 2800 nM.
Turning to `COc1cccc(C(=O)Nc2cccc(-c3nnc(-c4ccco4)o3)c2)c1` [Compound 58], the inhibition at 10 µM is 45% and the IC50 is 2400 nM.
As to `O=C(Nc1cccc(-c2nnc(-c3ccco3)o2)c1)c1cccc(Cl)c1` [Compound 59], the IC50 stood at 2000 nM.
Turning to `O=C(Nc1cccc(-c2nnc(-c3ccco3)o2)c1)c1cccc(O)c1` [Compound 62], testing at 1 µM gave an inhibition of 2% and the inhibition at 10 µM amounted to 11%.
In turn, `O=C(Nc1cccc(-c2nnc(-c3ccco3)o2)c1)c1ccccc1O` [Compound 64] showed an inhibition at 1 µM of 15% and an inhibition at 10 µM of 55%.
Consider `O=C(Nc1cccc(-c2nnc(-c3ccco3)o2)c1)c1cccc(OCc2ccccc2)c1` [Compound 71], for which at 1 µM the inhibition was 51% and the inhibition at 10 µM is 93%.
Take `O=C(Nc1cccc(-c2nnc(-c3ccco3)o2)c1)c1ccc(Br)cc1F` [Compound 73]: 1 µM produced 15% inhibition and the inhibition at 10 µM was found to be 66%.
Taken in the same sequence, the figures for `O=C(Nc1cccc(-c2nnc(-c3ccco3)o2)c1)c1ccc(-c2ccccc2)cc1F` [Compound 74] were 4% and 21%.
Taken in the same sequence, the figures for `COC(=O)c1ccccc1C(=O)Nc1cccc(-c2nnc(-c3ccco3)o2)c1` [Compound 75] were 16% and 36%.
`Nc1ccccc1C(=O)Nc1cccc(-c2nnc(-c3ccco3)o2)c1` [Compound 77] displayed an inhibition at 1 µM of 37% and an inhibition at 10 µM of 21%.
Consider `Cc1c(NC(=O)c2ccccc2F)cccc1-c1nnc(-c2ccco2)o1` [Compound 78], for which the “% inh @ 1 μM” value turned out to be 59% and 1 µM produced 42% inhibition.
Take `O=C(Nc1cccc(-c2nnc(-c3ccco3)o2)c1F)c1ccccc1F` [Compound 79, 2-fluoro-N-(2-fluoro-3-(5-(furan-2-yl)-1,3,4-oxadiazol-2-yl)phenyl)benzamide]: the inhibition at 1 µM came out at 89% and the IC50 turned out to be 110 nM.
Regarding `O=C(Nc1cc(-c2nnc(-c3ccc(Cl)o3)o2)c(F)cc1F)c1ccccc1F` [Compound 80], the inhibition at 1 µM is 22%.
As to `Cc1ccc(NC(=O)c2ccccc2F)cc1-c1nnc(-c2ccco2)o1` [Compound 81], the “% inh @ 1 μM” value is 36% and the inhibition at 1 µM worked out at 20%.
Compound `O=C(Nc1cccc(-c2nnc(-c3ccc(Cl)o3)o2)n1)c1ccccc1F` [Compound 82] gave an inhibition at 1 µM of 23% and an inhibition at 10 µM of 3%.
With `O=C(Nc1cccc(-c2nnc(-c3ccco3)o2)c1)c1ccccc1I` [Compound 83], at 1 µM the inhibition was 36% and the inhibition at 10 µM is 43%.
